Measured values taken from ChEMBL document CHEMBL4152357, “Efflux pump inhibition by 11H-pyrido[2,1-b]quinazolin-11-one analogues in mycobacteria” (Bioorg Med Chem, 2018).
Converted amounts (≈) assume the structure as drawn. The source made the active and inactive calls. The calls are words filed in the database; no cut-off is given here.

Columns and labels:
[1] = system: Mycolicibacterium smegmatis; test: Growth inhibition of Mycobacterium smegmatis MC2 155 ATCC 700084 after 72 hrs by MTT assay; assay type: organism-based
[2] = target: T1, Multidrug efflux pump LfrA (Mycobacterium smegmatis (strain ATCC 700084 / mc(2)155)) (UniProt A0R5K5); test: Inhibition of LfrA in Mycobacterium smegmatis MC2 155 ATCC 700084 assessed as decrease in EtBr MIC at 100 ug/ml after 72 hrs by MTT assay relative to control; conditions: Mycolicibacterium smegmatis MC2 155
T1 sequence (whole entry): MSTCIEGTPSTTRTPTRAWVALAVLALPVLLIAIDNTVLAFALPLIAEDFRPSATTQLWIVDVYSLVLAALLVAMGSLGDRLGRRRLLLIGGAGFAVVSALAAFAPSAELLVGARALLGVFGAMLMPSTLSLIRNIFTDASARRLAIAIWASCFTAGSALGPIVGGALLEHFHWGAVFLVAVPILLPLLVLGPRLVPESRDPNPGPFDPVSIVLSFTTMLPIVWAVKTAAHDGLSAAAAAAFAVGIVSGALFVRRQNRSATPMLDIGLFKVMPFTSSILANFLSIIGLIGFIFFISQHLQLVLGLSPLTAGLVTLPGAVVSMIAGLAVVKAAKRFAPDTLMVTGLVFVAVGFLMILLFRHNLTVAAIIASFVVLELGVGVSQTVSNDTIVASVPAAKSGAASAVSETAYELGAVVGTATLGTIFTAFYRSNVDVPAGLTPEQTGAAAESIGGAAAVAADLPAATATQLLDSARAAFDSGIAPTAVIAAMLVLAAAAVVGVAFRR

[3] = target: T1, Multidrug efflux pump LfrA (Mycobacterium smegmatis (strain ATCC 700084 / mc(2)155)); test: Inhibition of LfrA in Mycobacterium smegmatis MC2 155 ATCC 700084 assessed as decrease in norfloxacin MIC at 100 ug/ml after 72 hrs by MTT assay relative to control; conditions: Mycolicibacterium smegmatis MC2 155
[4] = target: T1, Multidrug efflux pump LfrA (Mycobacterium smegmatis (strain ATCC 700084 / mc(2)155)); test: Inhibition of LfrA in Mycobacterium smegmatis MC2 155 ATCC 700084 assessed as potentiation of EtBr-induced bactericidal activity at 100 ug/ml after 24 hrs; conditions: Mycolicibacterium smegmatis MC2 155
[5] = target: T1, Multidrug efflux pump LfrA (Mycobacterium smegmatis (strain ATCC 700084 / mc(2)155)); test: Inhibition of LfrA in Mycobacterium smegmatis MC2 155 ATCC 700084 assessed as potentiation of norfloxacin-induced bactericidal activity at 100 ug/ml after 48 hrs; conditions: Mycolicibacterium smegmatis MC2 155
CC-1 = test: Cytotoxicity against rat CC1 cells assessed as decrease in cell survival at 200 ug/ml after 24 hrs by Alamar blue reduction assay relative to control; assay type: cell-based; conditions: cc-1, 24 h
[6] = Cytotoxicity against rat CC1 cells assessed as cell survival at 100 ug/ml after 24 hrs by Alamar blue reduction assay relative to control; assay type: cell-based, CC-1; conditions: read-out: Survival
[7] = Cytotoxicity against rat CC1 cells assessed as cell survival at 50 ug/ml after 24 hrs by Alamar blue reduction assay relative to control; assay type: cell-based, CC-1; conditions: read-out: Survival
[8] = target: T1, Multidrug efflux pump LfrA (Mycobacterium smegmatis (strain ATCC 700084 / mc(2)155)); test: Inhibition of LfrA in Mycobacterium smegmatis MC2 155 ATCC 700084 assessed as increase in EtBr accumulation at 25 ug/ml measured every 5 mins for 35 mins by fluorometric analysis; conditions: Mycolicibacterium smegmatis MC2 155
[9] = target: T1, Multidrug efflux pump LfrA (Mycobacterium smegmatis (strain ATCC 700084 / mc(2)155)); test: Inhibition of LfrA in Mycobacterium smegmatis MC2 155 ATCC 700084 assessed as increase in EtBr accumulation at 50 ug/ml measured every 5 mins for 35 mins by fluorometric analysis; conditions: Mycolicibacterium smegmatis MC2 155
[10] = target: T1, Multidrug efflux pump LfrA (Mycobacterium smegmatis (strain ATCC 700084 / mc(2)155)); test: Inhibition of LfrA in Mycobacterium smegmatis MC2 155 ATCC 700084 assessed as increase in norfloxacin accumulation at 25 ug/ml measured every 5 mins for 35 mins by fluorometric analysis; conditions: Mycolicibacterium smegmatis MC2 155
[11] = target: T1, Multidrug efflux pump LfrA (Mycobacterium smegmatis (strain ATCC 700084 / mc(2)155)); test: Inhibition of LfrA in Mycobacterium smegmatis MC2 155 ATCC 700084 assessed as decrease in EtBr MIC at 0.78 ug/ml after 72 hrs by MTT assay relative to control; conditions: Mycolicibacterium smegmatis MC2 155
[12] = target: T1, Multidrug efflux pump LfrA (Mycobacterium smegmatis (strain ATCC 700084 / mc(2)155)); test: Inhibition of LfrA in Mycobacterium smegmatis MC2 155 ATCC 700084 assessed as decrease in norfloxacin MIC at 25 ug/ml after 72 hrs by MTT assay relative to control; conditions: Mycolicibacterium smegmatis MC2 155
[13] = target: T1, Multidrug efflux pump LfrA (Mycobacterium smegmatis (strain ATCC 700084 / mc(2)155)); test: Inhibition of LfrA in Mycobacterium smegmatis MC2 155 ATCC 700084 assessed as decrease in EtBr MIC at 3.125 ug/ml after 72 hrs by MTT assay relative to control; conditions: Mycolicibacterium smegmatis MC2 155
[14] = target: T1, Multidrug efflux pump LfrA (Mycobacterium smegmatis (strain ATCC 700084 / mc(2)155)); test: Inhibition of LfrA in Mycobacterium smegmatis MC2 155 ATCC 700084 assessed as potentiation of norfloxacin-induced bactericidal activity at 25 ug/ml after 24 to 48 hrs; conditions: Mycolicibacterium smegmatis MC2 155
[15] = target: T1, Multidrug efflux pump LfrA (Mycobacterium smegmatis (strain ATCC 700084 / mc(2)155)); test: Inhibition of LfrA in Mycobacterium smegmatis MC2 155 ATCC 700084 assessed as potentiation of EtBr-induced bactericidal activity at 2 ug/ml after 24 hrs; conditions: Mycolicibacterium smegmatis MC2 155
[16] = target: T1, Multidrug efflux pump LfrA (Mycobacterium smegmatis (strain ATCC 700084 / mc(2)155)); test: Inhibition of LfrA in Mycobacterium smegmatis MC2 155 ATCC 700084 assessed as potentiation of EtBr-induced bactericidal activity at 2 ug/ml after 48 hrs; conditions: Mycolicibacterium smegmatis MC2 155
[17] = target: T1, Multidrug efflux pump LfrA (Mycobacterium smegmatis (strain ATCC 700084 / mc(2)155)); test: Inhibition of LfrA in Mycobacterium smegmatis MC2 155 ATCC 700084 assessed as decrease in norfloxacin MIC at 50 ug/ml after 72 hrs by MTT assay relative to control; conditions: Mycolicibacterium smegmatis MC2 155
[18] = target: T1, Multidrug efflux pump LfrA (Mycobacterium smegmatis (strain ATCC 700084 / mc(2)155)); test: Inhibition of LfrA in Mycobacterium smegmatis MC2 155 ATCC 700084 assessed as potentiation of EtBr-induced bactericidal activity at 100 ug/ml after 48 hrs; conditions: Mycolicibacterium smegmatis MC2 155
[19] = target: T1, Multidrug efflux pump LfrA (Mycobacterium smegmatis (strain ATCC 700084 / mc(2)155)); test: Inhibition of LfrA in Mycobacterium smegmatis MC2 155 ATCC 700084 assessed as decrease in EtBr MIC at 16 ug/ml after 72 hrs by MTT assay relative to control; conditions: Mycolicibacterium smegmatis MC2 155
[20] = target: T1, Multidrug efflux pump LfrA (Mycobacterium smegmatis (strain ATCC 700084 / mc(2)155)); test: Inhibition of LfrA in Mycobacterium smegmatis MC2 155 ATCC 700084 assessed as decrease in norfloxacin MIC at 0.0004 ug/ml after 72 hrs by MTT assay relative to control; conditions: Mycolicibacterium smegmatis MC2 155
[21] = target: T1, Multidrug efflux pump LfrA (Mycobacterium smegmatis (strain ATCC 700084 / mc(2)155)); test: Inhibition of LfrA in Mycobacterium smegmatis MC2 155 ATCC 700084 assessed as increase in EtBr accumulation at 12.5 ug/ml measured every 5 mins for 35 mins by fluorometric analysis; conditions: Mycolicibacterium smegmatis MC2 155
[22] = target: T1, Multidrug efflux pump LfrA (Mycobacterium smegmatis (strain ATCC 700084 / mc(2)155)); test: Inhibition of LfrA in Mycobacterium smegmatis MC2 155 ATCC 700084 assessed as increase in norfloxacin accumulation at 12.5 ug/ml measured every 5 mins for 35 mins by fluorometric analysis; conditions: Mycolicibacterium smegmatis MC2 155

Compound	MIC [1] [µg/mL]	fold change (FC) [2]	fractional inhibitory concentration index (FICI) [2]	Activity (CC-1) [%]	viability at 24 h, 100 ug/ml [6] [%]	viability at 24 h, 50 ug/ml [7] [%]	inhibition [8]	Activity [9] [FU]	fold change (FC) [12]	fractional inhibitory concentration index (FICI) [12]	further results
O=c1c2ccc(Cl)cc2nc2ccccn12	200 (≈ 867 µM)	8	0.62	> 50	70	80	Active	248	–	–	fold change (FC) [3]: 8; fractional inhibitory concentration index (FICI) [3]: 0.62; inhibition [4]: Active; Activity (deltalog10CFU/ml) [5]: 4; Activity [10]: 18000 FU
Cc1ccn2c(=O)c3cc(Br)ccc3nc2c1	200 (≈ 692 µM)	–	–	–	–	–	–	–	4	0.37	fold change (FC) [11]: 2; fractional inhibitory concentration index (FICI) [11]: 0.3
Cc1ccn2c(=O)c3cccc(Cl)c3nc2c1	200 (≈ 817 µM)	–	–	–	–	–	–	–	4	0.37	fold change (FC) [13]: 2; fractional inhibitory concentration index (FICI) [13]: 0.5
O=c1c2cccc(Cl)c2nc2c3ccccc3ccn12	200 (≈ 712 µM)	2	1	–	–	–	–	–	4	0.37	–
Cc1cccn2c(=O)c3ccc(Br)cc3nc12	200 (≈ 692 µM)	–	–	–	–	–	–	–	4	0.37	–
O=c1c2cccc(Cl)c2nc2ccccn12	200 (≈ 867 µM)	–	–	> 50	99	100	–	–	8	0.25	Activity (deltalog10CFU/ml) [14]: > 3; Activity [10]: 3000 FU
Cc1cccn2c(=O)c3cccc(Cl)c3nc12	200 (≈ 817 µM)	8	0.62	> 50	42	40	Active	400	4	0.37	Activity (deltalog10CFU/ml) [15]: 7; Activity (deltalog10CFU/ml) [16]: > 3; inhibition [10]: Active
O=c1c2cccc(Cl)c2nc2c(Cl)cccn12	200 (≈ 754 µM)	16	0.56	> 50	92	95	Active	> 355	–	–	fold change (FC) [17]: 4; fractional inhibitory concentration index (FICI) [17]: 0.55; Activity (deltalog10CFU/ml) [18]: 7
N#CC(C#N)=NNc1cccc(Cl)c1 [CARBONYL CYANIDE M-CHLOROPHENYLHYDRAZONE]	25 (≈ 122 µM)	–	–	–	–	–	–	–	–	–	fold change (FC) [19]: 2; fractional inhibitory concentration index (FICI) [19]: 0.5; fold change (FC) [20]: 32; fractional inhibitory concentration index (FICI) [20]: 0.03; inhibition [21]: Active; Activity [22]: 1000 FU
